Several values for one entry are separate records, joined by “and”; a condition that tells them apart may be missing. Equal entries are not always repeated. Entries after “also recorded” stand apart in the source; their conditions may differ. Where two headings read alike, the source gives them in different places.
Legend:
[1] = test system: rat left atria; experiment: Spontaneous tachycardic activity (STA) in isolated rat left atria exposed to 2-APB under increased calcium load
Method: Male Sprague-Dawley rats (325-400 g) were anesthetized with intra-peritoneal pentobarbital (0.1 g/kg). Their right and left atria were isolated, superfused at 30° C. in Krebs-Henseleit buffer, and nearly isometric forces of contraction were measured from these muscles (Wolkowicz et al., 2002). 2-APB was prepared as a 150 mM dimethyl sulfoxide stock.
(§1) Left atria (n=8 per group) were paced at 3 Hz and (i) titrated with 0 to 30 nM isoproterenol (Ahlquist, 1970) or (ii) exposed to 3 μM forskolin (Laurenza et al., 1980). Left atrial force and frequency of contraction, the time to peak tension and relaxation times were recorded after a 3-5 min exposure to forskolin or to any concentration of isoproterenol. The 3 Hz pacing stimulus was interrupted at the end of these protocols to measure SMEs.
Left atria (n=10 per group) were paced at 0.1 Hz and treated with (i) 20 μM 2-APB for 10 min, (ii) with 30 nM isoproterenol for 5 min followed by 20 μM 2-APB for 10 min, and (iii) with 3 μM forskolin for 5 min followed by 20 μM 2-APB for 10 min.
Left atrial contraction and relaxation times were recorded at these five times, the pacing stimulus was stopped and rates of SMA were recorded. To determine whether initial pacing rate affects left atrial response to 2-APB and isoproterenol, left atria (n=5-7 per group) were paced at 3 Hz and (i) remained untreated for 15 min, (ii) were treated with 20 μM 2-APB alone for 10 min, or (ii) were treated with 30 nM isoproterenol for 5 min followed by 20 μM 2-APB for 10 min. Atrial mechanical function was measured at these four times; the pacing stimulus then was stopped and rates of SMA were recorded.
(§2) Left atria (n=6 per group) were paced at 3 Hz, titrated with 0 to 300 nM (−)BayK 8644 ([…]-1,4-Dihydro-2,6-dimethyl-5-nitro-4-[2-(trifluormethyl)phenyl]-3-pyridinecarboxylic acid methyl ester; Franckowiak et al. 1985) or FPL-64176 ((2,5-Dimethyl-4-[2-(phenylmethyl)benzoyl]-111-pyrrole-3-carboxylic acid methyl ester; Zheng et al., 1991) and their mechanical function and rates of SMA were recorded after a 5 min exposure to any concentration of slow calcium channel activator.
Left atria (n=8 per group) were paced at 0.1 Hz, exposed to 300 nM BayK 8644 or FPL-64176 for 5 min followed by 20 μM 2-APB for 10 min. Atrial mechanical function was recorded at this time; the pacing stimulus then was stopped and rates of SMA were recorded.
(§3) To test whether ryanodine receptor calcium leak produces SMA, left atria (n=6 per group) were paced at 0.1 Hz, treated with 0 or 300 nM BayK 8644 for 5 min, and then exposed to 600 nM ryanodine (Sutko et al., 1997). Atrial mechanical function and rates of SMA were recorded 20 min after exposure to ryanodine.
Rates of SMA were measured 5 min later.
(§4) Left atria (n=7) were paced at 3 Hz, treated with 120 μM ouabain (Illanes and Marshall, 1964), and any change in mechanical function was recorded at a new steady state, ˜10 min later. These atria were exposed to 20 μM 2-APB and their mechanical function and rates of SMA were recorded 10 min later.
3 Hz-paced left atria (n=9 per group) were superfused (i) in Krebs-Henseleit alone or (ii) they were treated with 20 μM 2-APB for 10 min, (iii) with 300 nM BayK 8644 for 10 min and with 20 μM 2-APB for 10 min, or (iv) they were treated with 300 nM BayK 8644 and 20 μM 2-APB for 10 min, then with 70 μM zatebradine (3-[3-[[2-(3,4-Dimethoxyphenyl)ethyl]methylamino] propyl]-1,3,4,5-tetrahydro-7,8,-dimethoxy-2H-3-benzazepin-2-one hydrochloride) for 10 min (Baruscotti et al., 2005). Pacing was interrupted at these times and rates of SMA were recorded.

[2] = test system: rat left atria; experiment: Left atrial force of contraction / post-rest potentiation maximum force
Method: Left atria were isolated from male Sprague-Dawley rats (325 to 400 g) under IP pentobarbital anesthesia (0.1 g/kg). Isolated left atria were superfused at 30° C. in Krebs-Henseleit (KH) buffer of the following mM composition: NaCl, 118; NaHCO3, 27; KCl, 4.8; MgSO4, 1.2; KH2PO4, 1.0; CaCl2, 1.8; and glucose, 11.1. Nearly isometric left atrial forces of contraction were measured as described.
The initial potentiated beat following prolonged rest (i.e., the PRP maximum force of contraction) reflects activator calcium available for SR release. The PRP response was used to obtain an indirect measure of left atrial SR calcium under our conditions.
Left atria (n=6) were superfused in KH, paced at 0.1 Hz, and subjected to PRP. Superfusion proceeded for another 35 min, and a second PRP was performed. These 2 forces were compared to assure the mechanical stability of our preparations.
One group (n=8) was superfused in KH, paced at 0.1 Hz, and their maximum force of contraction was measured. These atria were washed with KH containing 82 mM sodium, and a second PRP was performed 23 min later.
A second group (n=8) was paced at 0.1 Hz in KH and subjected to PRP. They were exposed to 22 μM 2-APB and, after the appearance of SMA, were washed with KH containing 22 μM 2-APB and 82 mM sodium. Superfusion continued for 23 min and a second PRP was performed.
Control 0.1 Hz paced atria (n=8) were subjected to PRP and exposed to 400 μM DIDS, and a second PRP was performed 23 min later.
A group of atria (n=8) were paced at 0.1 Hz in KH and subjected to PRP. They were exposed to 22 μM 2-APB, 400 μM DIDS was added to the superfusate after the appearance of SMA, and a second PRP was performed 23 min later.
as §1, §2, §3, §4
To test whether zatebradine affects left atrial force of contraction, two groups of left atria (n=9 per group) were paced at 3 Hz and treated with 300 nM BayK 8644. Five minutes later one group was incubated with six increasing concentrations of zatebradine (10-100 μM) for 3-5 min at each concentration, and forces of contraction were recorded. A second group was treated with BayK 8644 but not zatebradine, and forces of contraction were recorded at corresponding times.

[3] = 20 μM 2-APB plus 30 nM isoproterenol, 3 μM forskolin, 300 nM BayK 8644, 300 nM FPL-64176 or 120 μM ouabain, absence of pacing, 30° C.
[4] = no 2-APB, 30 nM isoproterenol, 3 μM forskolin, 300 nM BayK 8644 or FPL-64176, 120 μM ouabain, 600 nM ryanodine

| Compound | rate of STA (SMA frequency) in presence of 2-APB and calcium loading agent [1] | left atrial force of contraction with agent alone [2] | rate of STA (SMA frequency) in presence of 2-APB and calcium loading agent [1, 3] | left atrial force of contraction with agent alone [2, 4] | further results |
| --- | --- | --- | --- | --- | --- |
| COC(=O)c1c(C)[nH]c(C)c1C(=O)c1ccccc1Cc1ccccc1 [FPL-64176, 2,5-Dimethyl-4-[2-(phenylmethyl)benzoyl]-111-pyrrole-3-carboxylic acid methyl ester] | 222±9 contractions/min | increase left atrial force of contraction |  |  |  |
| NCCOB(c1ccccc1)c1ccccc1 [2-APB, 2-aminoethoxydiphenyl borate] |  |  |  |  | rate of STA post-washing [1]: 0.7±0.4 contractions/min; rate of STA pre-washing [1]: 224±12 contractions/min; maximum force of atrial contraction [2]: also decreased; maximum force of left atrial contraction [2]: significantly decreased |
| COC(=O)C1=C(C)NC(C)=C([N+](=O)[O-])[C@H]1c1ccccc1C(F)(F)F [BayK 8644, (45)-1,4-Dihydro-2,6-dimethyl-5-nitro-4-[2-(trifluormethyl)phenyl]-3-pyridinecarboxylic acid methyl ester] | 227±10 contractions/min | increase left atrial force of contraction |  |  |  |
| ryanodine |  | Time-dependent decreases in force of contraction |  |  | STA after depletion of ryanodine-sensitive calcium stores ([1]; BayK 8644 and 2-APB, then 600 nM ryanodine): persists; also recorded: does not terminate STA |
| C[C@@H]1O[C@@H](O[C@H]2C[C@@H](O)[C@]3(CO)[C@H]4[C@H](O)C[C@]5(C)[C@@H](C6=CC(=O)OC6)CC[C@]5(O)[C@@H]4CC[C@]3(O)C2)[C@H](O)[C@H](O)[C@H]1O [ouabain] |  |  | 202±5.6 contractions/min | doubles their force of contraction |  |
| CC(C)NCC(O)c1ccc(O)c(O)c1 (centres unmarked) [isoproterenol] |  |  | ~230 contractions/min and 239±11 contractions/min and 225±3.6 contractions/min | increase left atrial force of contraction |  |

— patent publication US20110144125A1, “Anti-Arrhythmia Agents, Methods of Their Use, Methods of Their Identification and Kits Therefore” (THE UAB RESEARCH FOUNDATION, priority 2008, published 2011)
